Source: PubChem BioAssay AID1963868 (Molecular Pharmacology Branch, DTP, NCI, 2024)
pIC50: −log10 of the molar value.

Test system: KRAS PDC tumor spheroids (HUVEC+MSC), viability
Assay: Anticancer human tumor 254851-301-R-J1-PDC patient-derived colon carcinoma cell line growth inhibition [KRAS2]
Details: for pIC50: curve of first compound; for viability, T/C: stronger effect = lower value
Summary of the method: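 Combination screen of spheroid viability in tumor-cell co-cultures with endothelial (HUVEC) and mesenchymal stem cell stroma. Each agent was tested in half-log dilutions, topping at clinical Cmax or at 10 microM without a known Cmax.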

[1] = second compound 0.1 µM, first compound 0.0316 µM
[2] = second compound 0.1 µM, first compound 0.1 µM
[3] = second compound 0.1 µM, first compound 0.316 µM
[4] = second compound 0.1 µM, first compound 1 µM
[5] = second compound 0.1 µM, first compound 3.16 µM
[6] = second compound 0.1 µM, first compound 10 µM
[7] = second compound 0.316 µM, first compound 0.0316 µM
[8] = second compound 0.316 µM, first compound 0.1 µM
[9] = second compound 0.316 µM, first compound 0.316 µM
[10] = second compound 0.316 µM, first compound 1 µM
[11] = second compound 0.316 µM, first compound 3.16 µM
[12] = second compound 0.316 µM, first compound 10 µM
[13] = second compound 1 µM, first compound 0.0316 µM
[14] = second compound 1 µM, first compound 0.1 µM
[15] = second compound 1 µM, first compound 0.316 µM
[16] = second compound 1 µM, first compound 1 µM
[17] = second compound 1 µM, first compound 3.16 µM
[18] = second compound 1 µM, first compound 10 µM
[19] = second compound 3.16 µM, first compound 0.0316 µM
[20] = second compound 3.16 µM, first compound 0.1 µM
[21] = second compound 3.16 µM, first compound 0.316 µM
[22] = second compound 3.16 µM, first compound 1 µM
[23] = second compound 3.16 µM, first compound 3.16 µM
[24] = second compound 3.16 µM, first compound 10 µM
[25] = second compound 10 µM, first compound 0.0316 µM
[26] = second compound 10 µM, first compound 0.1 µM
[27] = second compound 10 µM, first compound 0.316 µM
[28] = second compound 10 µM, first compound 1 µM
[29] = second compound 10 µM, first compound 3.16 µM
[30] = second compound 10 µM, first compound 10 µM
[31] = second compound 0.1 µM, first compound 0.00316 µM
[32] = second compound 0.1 µM, first compound 0.01 µM
[33] = second compound 0.316 µM, first compound 0.00316 µM
[34] = second compound 0.316 µM, first compound 0.01 µM
[35] = second compound 1 µM, first compound 0.00316 µM
[36] = second compound 1 µM, first compound 0.01 µM
[37] = second compound 3.16 µM, first compound 0.00316 µM
[38] = second compound 3.16 µM, first compound 0.01 µM
[39] = second compound 10 µM, first compound 0.00316 µM
[40] = second compound 10 µM, first compound 0.01 µM
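Also: spheroids exposed to compounds for seven days before readout.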
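For viability, T/C in this document: 100% = DMSO vehicle control luminescence of the spheroids.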

Q: Which results are given for CC(C)NCC(C(=O)N1CCN(c2ncnc3c2C(C)CC3O)CC1)c1ccc(Cl)cc1 (stereo not given) + CNCc1ccccc1-c1csc(C(C)Nc2nc(C)nc3cc(OC)c(OC)cc23)c1?
A: pIC50 (second compound 0.1 µM): < 5.00; pIC50 (second compound 0.316 µM): < 5.00; pIC50 (second compound 1 µM): < 5.00; pIC50 (second compound 3.16 µM): < 5.00; pIC50 (second compound 10 µM): > 7.50; viability, T/C [1]: 105%; viability, T/C [2]: 99.1%; viability, T/C [3]: 93.3%; viability, T/C [4]: 92%; viability, T/C [5]: 99.1%; viability, T/C [6]: 92.1%; viability, T/C [7]: 107%; viability, T/C [8]: 111%; viability, T/C [9]: 93.4%; viability, T/C [10]: 89.5%; viability, T/C [11]: 95.6%; viability, T/C [12]: 93.5%; viability, T/C [13]: 94.8%; viability, T/C [14]: 94%; viability, T/C [15]: 80.3%; viability, T/C [16]: 84.5%; viability, T/C [17]: 83.2%; viability, T/C [18]: 89.4%; viability, T/C [19]: 78.6%; viability, T/C [20]: 67.8%; viability, T/C [21]: 56%; viability, T/C [22]: 73.1%; viability, T/C [23]: 56.5%; viability, T/C [24]: 52.6%; viability, T/C [25]: 0.18%; viability, T/C [26]: 0.19%; viability, T/C [27]: 0.17%; viability, T/C [28]: 0.17%; viability, T/C [29]: 0.16%; viability, T/C [30]: 0.22%

Q: How did the pIC50 (second compound 0.1 µM) turn out when CCN1CCN(Cc2ccc(Nc3ncc(F)c(-c4cc(F)c5nc(C)n(C(C)C)c5c4)n3)nc2)CC1 + CNCc1ccccc1-c1csc(C(C)Nc2nc(C)nc3cc(OC)c(OC)cc23)c1 was run?
A: 6.18

Q: And the pIC50 (second compound 0.316 µM)?
A: 6.29

Q: And the pIC50 (second compound 1 µM)?
A: 6.31

Q: What about the pIC50 (second compound 3.16 µM) of the same molecule?
A: > 8.50

Q: And the pIC50 (second compound 10 µM)?
A: > 8.50

Q: What about the viability, T/C [31] of the same molecule?
A: 91.4%

Q: And the viability, T/C [32]?
A: 94.5%

Q: And the viability, T/C [1]?
A: 76.8%

Q: And the viability, T/C [2]?
A: 69.1%

Q: What about the viability, T/C [3] of the same molecule?
A: 70.9%

Q: And the viability, T/C [4]?
A: 40.4%

Q: And the viability, T/C [33]?
A: 110%

Q: And the viability, T/C [34]?
A: 86.2%

Q: And the viability, T/C [7]?
A: 84%

Q: What about the viability, T/C [8] of the same molecule?
A: 63.1%

Q: What about the viability, T/C [9] of the same molecule?
A: 59.9%

Q: What about the viability, T/C [10] of the same molecule?
A: 41%

Q: And the viability, T/C [35]?
A: 83.4%

Q: What about the viability, T/C [36] of the same molecule?
A: 83.6%

Q: What about the viability, T/C [13] of the same molecule?
A: 81%

Q: What about the viability, T/C [14] of the same molecule?
A: 62.6%

Q: What about the viability, T/C [15] of the same molecule?
A: 63.1%

Q: And the viability, T/C [16]?
A: 35.8%

Q: And the viability, T/C [37]?
A: 42.2%

Q: What about the viability, T/C [38] of the same molecule?
A: 35.1%

Q: And the viability, T/C [19]?
A: 26.4%

Q: What about the viability, T/C [20] of the same molecule?
A: 21.7%

Q: And the viability, T/C [21]?
A: 17.9%

Q: What about the viability, T/C [22] of the same molecule?
A: 14.7%

Q: What about the viability, T/C [39] of the same molecule?
A: 0.07%

Q: What about the viability, T/C [40] of the same molecule?
A: 0.09%

Q: And the viability, T/C [25]?
A: 0.09%

Q: What about the viability, T/C [26] of the same molecule?
A: 0.06%

Q: What about the viability, T/C [27] of the same molecule?
A: 0.07%

Q: What about the viability, T/C [28] of the same molecule?
A: 0.11%

Q: CCNC(=O)CC1N=C(c2ccc(Cl)cc2)c2cc(OC)ccc2-n2c(C)nnc21 (stereo not given) + CNCc1ccccc1-c1csc(C(C)Nc2nc(C)nc3cc(OC)c(OC)cc23)c1 was tested. Which pIC50 (second compound 0.1 µM) did it give?
A: < 5.00

Q: What about the pIC50 (second compound 0.316 µM) of the same molecule?
A: < 5.00

Q: What about the pIC50 (second compound 1 µM) of the same molecule?
A: < 5.00

Q: And the pIC50 (second compound 3.16 µM)?
A: > 7.50

Q: What about the pIC50 (second compound 10 µM) of the same molecule?
A: > 7.50

Q: What about the viability, T/C [1] of the same molecule?
A: 106%

Q: And the viability, T/C [2]?
A: 91.1%

Q: And the viability, T/C [3]?
A: 90.4%

Q: What about the viability, T/C [4] of the same molecule?
A: 99.1%

Q: What about the viability, T/C [5] of the same molecule?
A: 96%

Q: What about the viability, T/C [6] of the same molecule?
A: 78.6%

Q: What about the viability, T/C [7] of the same molecule?
A: 103%

Q: And the viability, T/C [8]?
A: 111%

Q: What about the viability, T/C [9] of the same molecule?
A: 98.3%

Q: And the viability, T/C [10]?
A: 92.9%

Q: What about the viability, T/C [11] of the same molecule?
A: 92.4%

Q: And the viability, T/C [12]?
A: 81.9%

Q: And the viability, T/C [13]?
A: 90.4%

Q: What about the viability, T/C [14] of the same molecule?
A: 101%

Q: And the viability, T/C [15]?
A: 92.2%

Q: And the viability, T/C [16]?
A: 100%

Q: And the viability, T/C [17]?
A: 92.1%

Q: And the viability, T/C [18]?
A: 73.8%

Q: What about the viability, T/C [19] of the same molecule?
A: 44.8%

Q: And the viability, T/C [20]?
A: 43.3%

Q: What about the viability, T/C [21] of the same molecule?
A: 38%

Q: And the viability, T/C [22]?
A: 31.3%

Q: And the viability, T/C [23]?
A: 34.4%

Q: And the viability, T/C [24]?
A: 31%

Q: And the viability, T/C [25]?
A: 0.08%

Q: And the viability, T/C [26]?
A: 0.08%

Q: And the viability, T/C [27]?
A: 0.08%

Q: And the viability, T/C [28]?
A: 0.08%

Q: And the viability, T/C [29]?
A: 0.07%

Q: What about the viability, T/C [30] of the same molecule?
A: 0.45%

Q: Cn1ncnc1[C@H]1c2n[nH]c(=O)c3cc(F)cc(c23)N[C@@H]1c1ccc(F)cc1 + CNCc1ccccc1-c1csc(C(C)Nc2nc(C)nc3cc(OC)c(OC)cc23)c1 was tested. Which pIC50 (second compound 0.1 µM) did it give?
A: < 7.00

Q: What about the pIC50 (second compound 0.316 µM) of the same molecule?
A: < 7.00

Q: And the pIC50 (second compound 1 µM)?
A: < 7.00

Q: What about the pIC50 (second compound 3.16 µM) of the same molecule?
A: < 7.00

Q: What about the pIC50 (second compound 10 µM) of the same molecule?
A: > 9.50

Q: And the viability, T/C (second compound 0.1 µM, first compound 0.000316 µM)?
A: 94.9%

Q: What about the viability, T/C (second compound 0.1 µM, first compound 0.001 µM) of the same molecule?
A: 90.7%

Q: And the viability, T/C [31]?
A: 92.4%

Q: And the viability, T/C [32]?
A: 96.9%

Q: What about the viability, T/C [1] of the same molecule?
A: 95.6%

Q: What about the viability, T/C [2] of the same molecule?
A: 93.6%

Q: What about the viability, T/C (second compound 0.316 µM, first compound 0.000316 µM) of the same molecule?
A: 90.6%

Q: What about the viability, T/C (second compound 0.316 µM, first compound 0.001 µM) of the same molecule?
A: 95.6%

Q: What about the viability, T/C [33] of the same molecule?
A: 98.8%

Q: And the viability, T/C [34]?
A: 85.4%

Q: What about the viability, T/C [7] of the same molecule?
A: 94.5%

Q: And the viability, T/C [8]?
A: 92.5%

Q: What about the viability, T/C (second compound 1 µM, first compound 0.000316 µM) of the same molecule?
A: 101%

Q: And the viability, T/C (second compound 1 µM, first compound 0.001 µM)?
A: 97.8%

Q: And the viability, T/C [35]?
A: 93.9%

Q: What about the viability, T/C [36] of the same molecule?
A: 84%

Q: And the viability, T/C [13]?
A: 86.9%

Q: What about the viability, T/C [14] of the same molecule?
A: 95.2%

Q: What about the viability, T/C (second compound 3.16 µM, first compound 0.000316 µM) of the same molecule?
A: 66.3%

Q: And the viability, T/C (second compound 3.16 µM, first compound 0.001 µM)?
A: 65%

Q: And the viability, T/C [37]?
A: 64.3%

Q: What about the viability, T/C [38] of the same molecule?
A: 63.7%

Q: What about the viability, T/C [19] of the same molecule?
A: 67.9%

Q: And the viability, T/C [20]?
A: 63.6%

Q: What about the viability, T/C (second compound 10 µM, first compound 0.000316 µM) of the same molecule?
A: 0.23%

Q: What about the viability, T/C (second compound 10 µM, first compound 0.001 µM) of the same molecule?
A: 0.23%

Q: And the viability, T/C [39]?
A: 0.25%

Q: What about the viability, T/C [40] of the same molecule?
A: 0.21%

Q: What about the viability, T/C [25] of the same molecule?
A: 0.22%

Q: What about the viability, T/C [26] of the same molecule?
A: 0.23%
